Source: ChEMBL document CHEMBL1201862, “PubChem BioAssay data set” (2004)
Active and inactive are the calls of the source.

How the values were obtained:
[1] = molecular target: Serine/threonine-protein kinase PAK 1 (Homo sapiens, UniProt Q13153); type: functional
[2] = molecular target: Protein kinase C zeta type (Homo sapiens, UniProt Q05513); type: functional;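 note: measured as one member of a broad kinase profiling panel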
[3] = molecular target: Ribosomal protein S6 kinase beta-1 (Homo sapiens, UniProt P23443); type: functional;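 note: measured as one member of a kinome-wide profiling panel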
[4] = molecular target: MAP kinase-activated protein kinase 2 (Homo sapiens, UniProt P49137); type: functional;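 note: measured as one member of a kinome-wide kinase panel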
[5] = molecular target: Protein kinase C delta type (Homo sapiens, UniProt Q05655); type: functional
Insulin receptor = Insulin receptor (Homo sapiens, UniProt P06213); type: functional;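 note: insulin receptor kinase tested as one member of a kinome-wide kinase panel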
[6] = molecular target: MAP/microtubule affinity-regulating kinase 3 (Homo sapiens, UniProt P27448); type: functional;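 note: MARK3 affinity measured as one member of a kinome panel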
[7] = molecular target: Calcium/calmodulin-dependent protein kinase type 1 (Homo sapiens, UniProt Q14012); type: functional
[8] = molecular target: Inhibitor of nuclear factor kappa-B kinase subunit alpha (Homo sapiens, UniProt O15111); type: functional
Cysteine protease ATG4B = Cysteine protease ATG4B (Homo sapiens, UniProt Q9Y4P1); type: functional;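 note: Fluorescence-based dose-response confirmation assay measuring inhibition of ATG4B activity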
Genome polyprotein = Genome polyprotein (dengue virus type 2, UniProt P29990); test: flavivirus cap methylation enzyme inhibition – biochemical, confirmation dose response, primary screen (AID 588689); type: functional
[9] = molecular target: 1-phosphatidylinositol 4,5-bisphosphate phosphodiesterase beta-3 (Homo sapiens, UniProt Q01970); test: Fluorescence-based biochemical high throughput dose response assay to identify inhibitors of phospholipase C isozymes (PLC-B3).
[10] = molecular target: T1, Long-chain-fatty-acid--AMP ligase FadD28 (Mycobacterium tuberculosis, UniProt P9WQ59); test: Fluorescence polarization aasay to screen for inhibitors that compete for the binding of FadD28 to a bisubstrate Measured in Biochemical System Using Plate Reader - 2147-01_Inhibitor_Dose_CherryPick_Activity.; type: functional, Mycobacterium tuberculosis H37Rv
T1 sequence (P9WQ59 whole entry): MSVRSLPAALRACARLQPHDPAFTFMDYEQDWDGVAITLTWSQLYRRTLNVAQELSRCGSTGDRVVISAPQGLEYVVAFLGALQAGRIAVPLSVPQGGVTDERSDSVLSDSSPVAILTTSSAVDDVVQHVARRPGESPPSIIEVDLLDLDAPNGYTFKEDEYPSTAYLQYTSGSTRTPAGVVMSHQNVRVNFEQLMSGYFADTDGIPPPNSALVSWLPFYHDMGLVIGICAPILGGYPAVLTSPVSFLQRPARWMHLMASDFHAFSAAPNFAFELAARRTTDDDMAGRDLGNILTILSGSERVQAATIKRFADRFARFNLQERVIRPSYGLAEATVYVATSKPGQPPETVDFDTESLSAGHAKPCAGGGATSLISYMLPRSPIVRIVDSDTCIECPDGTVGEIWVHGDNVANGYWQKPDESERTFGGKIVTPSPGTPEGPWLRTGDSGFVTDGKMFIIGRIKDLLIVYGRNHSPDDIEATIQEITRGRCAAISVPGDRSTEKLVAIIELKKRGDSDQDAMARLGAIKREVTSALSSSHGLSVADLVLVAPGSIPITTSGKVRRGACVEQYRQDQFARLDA

Phospholipase A2 = Phospholipase A2 (Homo sapiens, UniProt P04054); type: functional;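 note: confirmatory dose-response counterscreen on phospholipase A2, testing hits that came from an ultra-high-throughput screen for ATG4B inhibitors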
Hexokinase HKDC1 = molecular target: T2, Hexokinase HKDC1 (Homo sapiens, UniProt Q2TB90); test: inhibition of HKDC1 glucose phosphorylation – biochemical, W721R variant, dose response (AID 504729); type: functional
T2 sequence (Q2TB90 whole entry): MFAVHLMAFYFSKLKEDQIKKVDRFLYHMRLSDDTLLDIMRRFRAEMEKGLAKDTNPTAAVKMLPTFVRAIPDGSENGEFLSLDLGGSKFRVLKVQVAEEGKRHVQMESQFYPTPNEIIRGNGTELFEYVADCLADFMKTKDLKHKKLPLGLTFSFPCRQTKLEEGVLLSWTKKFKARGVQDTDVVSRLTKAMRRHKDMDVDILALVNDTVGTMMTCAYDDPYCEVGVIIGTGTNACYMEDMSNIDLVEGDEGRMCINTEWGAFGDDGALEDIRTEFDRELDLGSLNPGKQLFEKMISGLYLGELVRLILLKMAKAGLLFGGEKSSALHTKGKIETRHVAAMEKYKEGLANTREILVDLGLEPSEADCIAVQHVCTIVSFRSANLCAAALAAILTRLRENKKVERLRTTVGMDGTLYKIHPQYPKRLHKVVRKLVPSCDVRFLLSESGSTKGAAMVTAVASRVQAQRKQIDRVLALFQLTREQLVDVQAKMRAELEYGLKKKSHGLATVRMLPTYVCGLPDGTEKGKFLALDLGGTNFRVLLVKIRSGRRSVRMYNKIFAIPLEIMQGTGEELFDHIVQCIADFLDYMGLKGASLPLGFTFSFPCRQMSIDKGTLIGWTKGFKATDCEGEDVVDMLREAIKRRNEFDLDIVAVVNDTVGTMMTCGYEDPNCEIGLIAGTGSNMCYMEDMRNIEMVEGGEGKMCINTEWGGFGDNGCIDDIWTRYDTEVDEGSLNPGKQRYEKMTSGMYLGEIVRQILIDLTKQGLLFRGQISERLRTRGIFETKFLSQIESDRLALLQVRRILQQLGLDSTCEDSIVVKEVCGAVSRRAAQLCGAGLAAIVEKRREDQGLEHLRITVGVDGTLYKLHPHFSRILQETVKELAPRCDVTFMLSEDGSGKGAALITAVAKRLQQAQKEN

[11] = molecular target: Protein kinase C theta type (Homo sapiens, UniProt Q04759); test: Navigating the Kinome. Panel member name: PRKCQ; type: functional
[12] = molecular target: Tyrosine-protein kinase receptor TYRO3 (Homo sapiens, UniProt Q06418); type: functional;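 note: TYRO3 value obtained as one member of a kinome-wide profiling panel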
[13] = molecular target: G protein-coupled receptor kinase 5 (Homo sapiens, UniProt P34947); test: Navigating the Kinome. Panel member name: GPRK5; type: functional
[14] = molecular target: Macrophage-stimulating protein receptor (Homo sapiens, UniProt Q04912); test: Navigating the Kinome. Panel member name: MST1R; type: functional
[15] = molecular target: Dual specificity mitogen-activated protein kinase kinase 2 (Homo sapiens, UniProt P36507); test: Navigating the Kinome. Panel member name: MAP2K2; type: functional
[16] = molecular target: Cyclin-dependent kinase 7 (Homo sapiens, UniProt P50613); type: functional;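 note: value comes from a kinome-wide kinase profiling panel in which CDK7 is one member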
[17] = molecular target: Proto-oncogene tyrosine-protein kinase receptor Ret (Homo sapiens, UniProt P07949); type: functional;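 note: measured within a kinome-wide profiling panel, RET as the panel member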
[18] = molecular target: Serine/threonine-protein kinase D3 (Homo sapiens, UniProt O94806); type: functional;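 note: determined within a kinase panel screen, with PRKCN as the panel member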
[19] = molecular target: Leucine-rich repeat serine/threonine-protein kinase 2 (Homo sapiens, UniProt Q5S007); type: functional;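 note: value from a broad kinome-wide panel profiling study in which LRRK2 was one of the kinases tested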

Sequence of 1-phosphatidylinositol 4,5-bisphosphate phosphodiesterase beta-3 (Q01970 whole entry): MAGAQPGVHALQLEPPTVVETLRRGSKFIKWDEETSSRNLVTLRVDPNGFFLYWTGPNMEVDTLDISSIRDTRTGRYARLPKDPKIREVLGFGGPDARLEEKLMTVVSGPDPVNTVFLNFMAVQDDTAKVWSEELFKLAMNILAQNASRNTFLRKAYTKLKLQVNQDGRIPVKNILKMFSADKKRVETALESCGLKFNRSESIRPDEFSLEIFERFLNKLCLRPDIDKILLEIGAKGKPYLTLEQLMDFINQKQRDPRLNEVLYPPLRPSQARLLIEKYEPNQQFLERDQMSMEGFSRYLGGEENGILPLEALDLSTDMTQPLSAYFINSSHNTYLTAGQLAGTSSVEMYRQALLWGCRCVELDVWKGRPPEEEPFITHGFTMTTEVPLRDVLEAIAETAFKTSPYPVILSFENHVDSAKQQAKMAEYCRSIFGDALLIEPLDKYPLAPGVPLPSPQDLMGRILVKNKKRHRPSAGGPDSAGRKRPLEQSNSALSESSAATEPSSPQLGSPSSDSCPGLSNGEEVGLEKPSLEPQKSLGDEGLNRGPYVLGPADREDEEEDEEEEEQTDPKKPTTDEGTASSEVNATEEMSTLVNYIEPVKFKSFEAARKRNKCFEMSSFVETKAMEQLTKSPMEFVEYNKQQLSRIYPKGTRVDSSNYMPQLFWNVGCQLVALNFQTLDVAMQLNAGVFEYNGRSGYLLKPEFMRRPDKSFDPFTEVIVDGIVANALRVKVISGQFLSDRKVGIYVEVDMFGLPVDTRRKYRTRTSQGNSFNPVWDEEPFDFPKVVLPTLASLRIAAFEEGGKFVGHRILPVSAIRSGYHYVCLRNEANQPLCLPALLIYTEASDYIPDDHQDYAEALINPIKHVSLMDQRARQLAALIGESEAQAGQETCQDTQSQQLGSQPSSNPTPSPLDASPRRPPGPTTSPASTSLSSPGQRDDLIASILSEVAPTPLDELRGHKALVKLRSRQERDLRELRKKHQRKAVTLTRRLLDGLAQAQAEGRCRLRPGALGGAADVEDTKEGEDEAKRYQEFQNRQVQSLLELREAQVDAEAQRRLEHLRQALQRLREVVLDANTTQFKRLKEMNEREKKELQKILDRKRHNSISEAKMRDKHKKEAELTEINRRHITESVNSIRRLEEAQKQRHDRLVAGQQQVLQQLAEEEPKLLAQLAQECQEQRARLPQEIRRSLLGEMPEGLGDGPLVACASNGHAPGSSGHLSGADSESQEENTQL
Sequence of Ribosomal protein S6 kinase beta-1 (P23443 whole entry): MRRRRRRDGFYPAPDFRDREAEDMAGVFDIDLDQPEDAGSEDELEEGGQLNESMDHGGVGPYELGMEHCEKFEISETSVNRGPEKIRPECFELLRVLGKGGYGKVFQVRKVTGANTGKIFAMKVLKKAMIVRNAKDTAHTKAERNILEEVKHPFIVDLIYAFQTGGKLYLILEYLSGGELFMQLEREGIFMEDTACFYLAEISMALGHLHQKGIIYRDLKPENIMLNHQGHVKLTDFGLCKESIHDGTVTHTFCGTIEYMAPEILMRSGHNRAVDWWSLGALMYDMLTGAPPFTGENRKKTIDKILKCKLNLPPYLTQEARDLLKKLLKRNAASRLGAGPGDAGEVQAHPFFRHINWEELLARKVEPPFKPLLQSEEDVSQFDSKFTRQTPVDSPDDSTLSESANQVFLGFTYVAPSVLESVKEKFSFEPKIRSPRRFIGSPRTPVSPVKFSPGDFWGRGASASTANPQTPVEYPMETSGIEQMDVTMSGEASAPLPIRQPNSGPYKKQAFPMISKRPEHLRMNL
Sequence of Tyrosine-protein kinase receptor TYRO3 (Q06418 whole entry): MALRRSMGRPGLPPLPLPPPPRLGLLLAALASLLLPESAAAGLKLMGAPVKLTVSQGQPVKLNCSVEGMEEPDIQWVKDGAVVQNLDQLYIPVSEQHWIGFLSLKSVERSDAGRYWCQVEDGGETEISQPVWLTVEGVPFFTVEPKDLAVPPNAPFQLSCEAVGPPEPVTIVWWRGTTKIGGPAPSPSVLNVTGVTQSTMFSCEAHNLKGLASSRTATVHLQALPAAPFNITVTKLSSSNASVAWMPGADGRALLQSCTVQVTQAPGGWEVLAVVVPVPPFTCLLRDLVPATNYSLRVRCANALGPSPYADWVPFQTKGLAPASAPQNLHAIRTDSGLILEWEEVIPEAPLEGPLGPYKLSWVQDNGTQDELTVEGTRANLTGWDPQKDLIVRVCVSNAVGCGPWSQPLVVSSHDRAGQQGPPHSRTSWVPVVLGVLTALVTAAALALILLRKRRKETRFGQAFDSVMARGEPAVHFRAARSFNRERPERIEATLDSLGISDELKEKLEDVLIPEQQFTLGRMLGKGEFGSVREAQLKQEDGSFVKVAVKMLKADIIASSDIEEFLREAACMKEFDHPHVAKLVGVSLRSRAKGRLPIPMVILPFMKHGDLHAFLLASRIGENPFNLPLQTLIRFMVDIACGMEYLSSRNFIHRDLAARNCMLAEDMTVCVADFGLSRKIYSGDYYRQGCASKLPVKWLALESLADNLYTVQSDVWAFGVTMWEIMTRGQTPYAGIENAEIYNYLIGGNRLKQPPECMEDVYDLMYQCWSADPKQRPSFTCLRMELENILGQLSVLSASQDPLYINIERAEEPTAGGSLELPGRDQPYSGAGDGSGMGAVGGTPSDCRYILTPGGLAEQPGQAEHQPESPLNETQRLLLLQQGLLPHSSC
Sequence of Cyclin-dependent kinase 7 (P50613 whole entry): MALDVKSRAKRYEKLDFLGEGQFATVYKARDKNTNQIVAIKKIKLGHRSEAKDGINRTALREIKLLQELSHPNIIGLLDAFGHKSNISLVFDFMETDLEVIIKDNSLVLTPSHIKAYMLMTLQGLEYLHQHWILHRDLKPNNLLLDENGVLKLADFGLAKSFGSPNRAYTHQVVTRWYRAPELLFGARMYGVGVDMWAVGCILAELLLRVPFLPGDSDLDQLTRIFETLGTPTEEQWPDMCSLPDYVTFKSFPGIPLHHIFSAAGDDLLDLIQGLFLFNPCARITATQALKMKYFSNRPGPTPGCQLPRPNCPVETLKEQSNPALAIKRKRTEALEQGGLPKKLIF
Sequence of Protein kinase C zeta type (Q05513 whole entry): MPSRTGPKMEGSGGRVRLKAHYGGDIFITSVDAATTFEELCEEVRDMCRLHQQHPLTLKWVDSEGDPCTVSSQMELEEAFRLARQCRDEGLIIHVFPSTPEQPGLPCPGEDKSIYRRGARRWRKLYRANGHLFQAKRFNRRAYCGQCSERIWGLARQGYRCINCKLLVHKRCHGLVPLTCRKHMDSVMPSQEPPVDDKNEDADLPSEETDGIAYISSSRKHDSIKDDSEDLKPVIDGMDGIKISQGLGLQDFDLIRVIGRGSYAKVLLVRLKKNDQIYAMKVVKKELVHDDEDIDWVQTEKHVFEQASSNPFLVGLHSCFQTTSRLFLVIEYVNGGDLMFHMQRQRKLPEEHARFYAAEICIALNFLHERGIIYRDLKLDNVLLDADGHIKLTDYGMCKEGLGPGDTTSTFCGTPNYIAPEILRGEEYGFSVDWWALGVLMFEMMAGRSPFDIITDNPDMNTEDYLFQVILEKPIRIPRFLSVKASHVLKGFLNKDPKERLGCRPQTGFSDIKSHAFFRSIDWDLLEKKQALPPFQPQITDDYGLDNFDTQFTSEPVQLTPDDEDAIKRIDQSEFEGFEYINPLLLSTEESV
Sequence of Serine/threonine-protein kinase D3 (O94806 whole entry): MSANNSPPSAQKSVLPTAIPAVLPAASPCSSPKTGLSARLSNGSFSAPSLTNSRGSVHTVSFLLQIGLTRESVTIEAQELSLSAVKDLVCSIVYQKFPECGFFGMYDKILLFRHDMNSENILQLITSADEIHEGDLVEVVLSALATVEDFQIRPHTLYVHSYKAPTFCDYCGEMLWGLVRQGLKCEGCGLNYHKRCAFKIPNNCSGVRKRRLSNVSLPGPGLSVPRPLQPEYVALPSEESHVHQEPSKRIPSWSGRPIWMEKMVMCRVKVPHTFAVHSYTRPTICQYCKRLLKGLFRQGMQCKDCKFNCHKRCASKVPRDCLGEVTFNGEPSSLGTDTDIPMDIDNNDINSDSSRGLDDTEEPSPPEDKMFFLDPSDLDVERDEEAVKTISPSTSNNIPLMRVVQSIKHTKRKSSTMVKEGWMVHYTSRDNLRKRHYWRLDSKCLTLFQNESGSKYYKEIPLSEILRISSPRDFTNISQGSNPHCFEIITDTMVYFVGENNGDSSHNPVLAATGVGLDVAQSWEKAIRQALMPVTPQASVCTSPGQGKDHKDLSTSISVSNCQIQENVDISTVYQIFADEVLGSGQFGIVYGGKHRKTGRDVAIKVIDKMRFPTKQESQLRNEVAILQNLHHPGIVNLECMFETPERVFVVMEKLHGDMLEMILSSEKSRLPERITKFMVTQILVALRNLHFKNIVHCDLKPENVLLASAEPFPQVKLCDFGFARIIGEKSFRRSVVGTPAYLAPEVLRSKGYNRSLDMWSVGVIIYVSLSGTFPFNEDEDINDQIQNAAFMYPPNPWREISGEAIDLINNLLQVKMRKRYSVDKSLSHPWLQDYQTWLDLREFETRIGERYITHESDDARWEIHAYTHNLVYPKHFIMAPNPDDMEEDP
Sequence of MAP kinase-activated protein kinase 2 (P49137 whole entry): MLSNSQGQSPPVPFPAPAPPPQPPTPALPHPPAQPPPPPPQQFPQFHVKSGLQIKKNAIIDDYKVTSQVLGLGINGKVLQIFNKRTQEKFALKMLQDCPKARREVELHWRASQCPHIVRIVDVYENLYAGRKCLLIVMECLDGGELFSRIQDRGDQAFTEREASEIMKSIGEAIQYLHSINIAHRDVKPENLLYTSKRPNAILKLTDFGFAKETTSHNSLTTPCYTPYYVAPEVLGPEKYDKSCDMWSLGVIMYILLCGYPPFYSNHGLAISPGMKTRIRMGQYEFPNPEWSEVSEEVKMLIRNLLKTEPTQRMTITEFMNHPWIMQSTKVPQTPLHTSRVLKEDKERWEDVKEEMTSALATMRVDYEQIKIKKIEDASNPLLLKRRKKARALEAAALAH
Sequence of Phospholipase A2 (P04054 whole entry): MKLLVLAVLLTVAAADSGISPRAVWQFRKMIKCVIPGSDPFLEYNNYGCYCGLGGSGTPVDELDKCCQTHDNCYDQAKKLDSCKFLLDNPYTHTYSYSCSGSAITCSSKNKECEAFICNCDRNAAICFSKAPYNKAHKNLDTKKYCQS

Compound: CCOC(=O)c1cn(-c2ccc(O)cc2C)c2cc(-c3ccncc3)ccc2c1=O
- Ki [1]: > 10 µM (inactive)
- Ki [2]: > 7.94 µM (inactive)
- Ki [3]: > 6.31 µM (inactive)
- Ki [4]: > 7.94 µM (inactive)
- Ki [5]: 0.501 µM (active)
- Ki (Insulin receptor): > 5.01 µM (inactive)
- Ki [6]: > 6.31 µM (inactive)
- Ki [7]: > 7.94 µM (inactive)
- Ki [8]: > 3.98 µM (inactive)

Compound: O=C(O)c1[nH]c2ccccc2c1C(c1cc(Cl)cc([N+](=O)[O-])c1O)c1c(C(=O)O)[nH]c2ccccc12
- IC50 (Cysteine protease ATG4B): 3.46 µM (active)
- IC50 (Genome polyprotein): 9.77 µM (active)
- IC50 [9]: > 122 µM (inactive)
- AC50 [10]: 7.15 µM (active)
- IC50 (Phospholipase A2): 9.04 µM (active)

Compound: O=C1C=C(NCc2ccccc2)c2ccccc2C1=O
- IC50 (Hexokinase HKDC1): 2.5 µM (active)

Compound: Cc1cc(=O)[nH]nc1-c1ccc(NC(=O)Nc2cc(C(F)(F)F)ccc2F)c(Cl)c1
- Ki [11]: > 2.51 µM (inactive)
- Ki [12]: > 3.16 µM (inactive)
- Ki [13]: > 3.98 µM (inactive)
- Ki [14]: > 3.98 µM (inactive)
- Ki [15]: > 3.98 µM (inactive)
- Ki [16]: > 3.98 µM (inactive)
- Ki [17]: 0.00316 µM (active)
- Ki [18]: > 3.98 µM (inactive)
- Ki [19]: > 2.51 µM (inactive)
